Assay results taken from the supplement of paper PMC10307832.

Tests used:
Test in all cases: relative viability (nuclei count vs DMSO), 5 days (fraction); higher = more cells survive
VX-11e + Alpelisib = compound: CC1=CN=C(N=C1C2=CNC(=C2)C(=O)N[C@H](CO)C3=CC(=CC=C3)Cl)NC4=C(C=C(C=C4)F)Cl [VX-11e] + Cc1nc(NC(=O)N2CCC[C@H]2C(N)=O)sc1-c1ccnc(C(C)(C)C(F)(F)F)c1 [Alpelisib] (partner 2 µM)
Summary of the method: (§1)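 Relative viability was taken as the ratio of nuclei in treated wells to nuclei in vehicle wells. Lung cancer cell lines in 1536-well plates received compounds by pin tool one day after seeding, either one drug alone or a fixed anchor-drug dose plus five library-drug doses (not always all listed) in √10 steps. Nuclei were counted on 4× images after 5 days of treatment, and values are medians of duplicate plates.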

VX-11e + Olaparib = compound: CC1=CN=C(N=C1C2=CNC(=C2)C(=O)N[C@H](CO)C3=CC(=CC=C3)Cl)NC4=C(C=C(C=C4)F)Cl [VX-11e] + O=C(c1cc(Cc2n[nH]c(=O)c3ccccc23)ccc1F)N1CCN(C(=O)C2CC2)CC1 [Olaparib] (partner 8 µM)
Summary of the method: as §1

VX-11e + Palbociclib = compound: CC1=CN=C(N=C1C2=CNC(=C2)C(=O)N[C@H](CO)C3=CC(=CC=C3)Cl)NC4=C(C=C(C=C4)F)Cl [VX-11e] + CC(=O)c1c(C)c2cnc(Nc3ccc(N4CCNCC4)cn3)nc2n(C2CCCC2)c1=O [Palbociclib] (partner 0.5 µM)
Summary of the method: as §1

VX-11e + Pemetrexed = compound: CC1=CN=C(N=C1C2=CNC(=C2)C(=O)N[C@H](CO)C3=CC(=CC=C3)Cl)NC4=C(C=C(C=C4)F)Cl [VX-11e] + Nc1nc2[nH]cc(CCc3ccc(C(=O)N[C@@H](CCC(=O)O)C(=O)O)cc3)c2c(=O)[nH]1 [Pemetrexed] (partner 0.2 µM)
Summary of the method: as §1

Cell Line | relative viability (VX-11e + Alpelisib; first compound 0.04 µM) | relative viability (VX-11e + Alpelisib; first compound 0.1265 µM) | relative viability (VX-11e + Alpelisib; first compound 0.4 µM) | relative viability (VX-11e + Alpelisib; first compound 1.265 µM) | relative viability (VX-11e + Alpelisib; first compound 4 µM) | relative viability (VX-11e + Olaparib; first compound 0.04 µM) | relative viability (VX-11e + Olaparib; first compound 0.1265 µM) | relative viability (VX-11e + Olaparib; first compound 0.4 µM) | relative viability (VX-11e + Olaparib; first compound 1.265 µM) | relative viability (VX-11e + Olaparib; first compound 4 µM) | relative viability (VX-11e + Palbociclib; first compound 0.04 µM) | relative viability (VX-11e + Palbociclib; first compound 0.1265 µM) | relative viability (VX-11e + Palbociclib; first compound 0.4 µM) | relative viability (VX-11e + Palbociclib; first compound 1.265 µM) | relative viability (VX-11e + Palbociclib; first compound 4 µM) | relative viability (VX-11e + Pemetrexed; first compound 0.04 µM) | relative viability (VX-11e + Pemetrexed; first compound 0.1265 µM) | relative viability (VX-11e + Pemetrexed; first compound 0.4 µM) | relative viability (VX-11e + Pemetrexed; first compound 1.265 µM) | relative viability (VX-11e + Pemetrexed; first compound 4 µM)
PC-3 [JPC-3] | 1.03 | 1.02 | 1 | 1.15 | 0.827 | 1.23 | 1.09 | 1.09 | 1.19 | 0.901 | 0.565 | 0.558 | 0.519 | 0.624 | 0.546 | 1.08 | 1.09 | 1.12 | 0.976 | 0.846
PC-14 | 1.13 | 0.916 | 0.676 | 0.918 | 0.459 | 0.269 | 0.261 | 0.222 | 0.22 | 0.214 | 0.551 | 0.497 | 0.374 | 0.252 | 0.19 | 0.132 | 0.108 | 0.148 | 0.134 | 0.112
RERF-LC-KJ | 1.47 | 0.739 | – | 0.829 | 0.551 | 1.11 | 0.884 | 0.945 | 0.921 | 0.979 | 1.11 | 1.02 | 0.981 | 0.952 | 0.908 | 0.522 | 0.468 | 0.42 | 0.442 | 0.417
SK-LU-1 | 1.26 | 1.1 | 1.05 | 0.592 | 0.263 | 0.537 | 0.446 | 0.394 | 0.365 | 0.239 | 0.399 | 0.355 | 0.325 | 0.365 | 0.236 | 1.01 | 0.981 | 0.975 | 0.596 | 0.301
SK-MES-1 | 1.31 | 0.815 | 0.718 | 0.644 | 0.208 | 0.732 | 0.636 | 0.826 | 0.493 | 0.265 | 0.326 | 0.329 | 0.355 | 0.327 | 0.244 | 0.903 | 0.921 | 0.818 | 0.553 | 0.42
SW 1573 | 0.791 | 0.825 | 0.767 | 0.59 | 0.39 | 0.551 | 0.472 | 0.453 | 0.398 | 0.23 | – | 0.342 | 0.351 | 0.259 | 0.15 | – | 0.88 | 0.703 | 0.559 | 0.393
UMC-11 | 0.921 | 1 | 0.962 | 0.97 | 0.973 | 0.377 | 0.369 | 0.331 | 0.335 | 0.38 | – | 0.309 | 0.283 | 0.267 | 0.318 | 0.799 | 0.762 | 0.866 | 0.754 | 0.681
